Measurements from PMC9112336 (ACS infectious diseases, 2022).

Experiments:
Type in all cases: cell-based
[1] = system: GFP-Rab5 expressing HEK293 cells
[2] = system: mCherry-LAMP1 expressing HEK293 cells
[3] = system: mCherry-LAMP1 expressing HEK293 cells; remark: listed apart in the source
[4] = system: vesicular acidification in HEK293 cells
[5] = system: endocytic vesicle pH in HEK293 cells
[6] = system: mCherry-LAMP1 expressing HEK293 cells; remark: listed apart in the source

CO/C1=C\C(C)=C\[C@@H](C)[C@@H](O)[C@@H](C)C/C(C)=C/C=C/[C@H](OC)[C@@H]([C@@H](C)[C@@H](O)[C@H](C)[C@@]2(O)C[C@@H](O)[C@H](C)[C@@H](C(C)C)O2)OC1=O [bafilomycin, bafilomycin A1]
average size of Rab5+ punctate vesicles [1]: 400 nm | average number of dilated vesicles >1 μm per cell, pre-treatment before apilimod [2]: ~1 | average number of large, dilated vesicles per cell, treatment after apilimod [3]: ~1 | reversibility of inhibition of vesicular acidification [4]: full recovery of acridine orange pH-dependent shift to red was not observed | large (>1 μm) vesicle pHrodo fluorescence [5]: significant decrease

Cc1cccc(/C=N/Nc2cc(N3CCOCC3)nc(OCCc3ccccn3)n2)c1 [Apilimod, apilimod]
effect on LAMP1+ structures compared to DMSO [6]: significantly altered LAMP1 structures

COc1cc2c(O)c3c(c(-c4ccc5c(c4)OCO5)c2cc1OC)C(=O)OC3 [1.1, diphyllin]
acidification activity after the 24 h washout period [4]: 90.2 ± 11.5% | acidification activity, initial response (immediate post washout) [4]: 57.5 ± 9.0%
